# Source: PubChem BioAssay AID1259407 (Chemical Carcinogenesis Research Information System (CCRIS), 2018)
# Calls of active or inactive are those of the source. No rule for the calls is given here.
# System: CCRIS mutagenicity, Ames/micronucleus/aberration tests
# Assay: CCRIS mutagenicity studies
# [1] = Test System: AMES SALMONELLA TYPHIMURIUM, Strain/Indicator: TA100, Metabolic Activation: NONE, Method: PREINCUBATION
# [2] = Test System: AMES SALMONELLA TYPHIMURIUM, Strain/Indicator: TA100, Metabolic Activation: NONE, Method: STANDARD PLATE
# [3] = Test System: AMES SALMONELLA TYPHIMURIUM, Strain/Indicator: TA100, Metabolic Activation: RAT, LIVER, S-9, AROCLOR 1254, Method: PREINCUBATION
# [4] = Test System: AMES SALMONELLA TYPHIMURIUM, Strain/Indicator: TA100, Metabolic Activation: RAT, LIVER, S-9, AROCLOR 1254, Method: STANDARD PLATE
# [5] = Test System: AMES SALMONELLA TYPHIMURIUM, Strain/Indicator: TA98, Metabolic Activation: NONE, Method: STANDARD PLATE
# [6] = Test System: AMES SALMONELLA TYPHIMURIUM, Strain/Indicator: TA98, Metabolic Activation: RAT, LIVER, S-9, AROCLOR 1254, Method: STANDARD PLATE
compound,measurement,setting,value
CBr,mutagenic call,"Test System: AMES SALMONELLA TYPHIMURIUM, Strain/Indicator: TA98, Metabolic Activation: HAMSTER, LIVER, S-9, AROCLOR 1254 (30%), Method: DESICCATOR",inactive; negative
same,mutagenic call,"Test System: AMES SALMONELLA TYPHIMURIUM, Strain/Indicator: TA98, Metabolic Activation: NONE, Method: DESICCATOR",inactive; negative
same,mutagenic call,"Test System: AMES SALMONELLA TYPHIMURIUM, Strain/Indicator: TA98, Metabolic Activation: NONE, Method: GAS EXPOSURE",inactive; negative
same,mutagenic call,"Test System: AMES SALMONELLA TYPHIMURIUM, Strain/Indicator: TA98, Metabolic Activation: RAT, LIVER, S-9, AROCLOR 1254 (30%), Method: DESICCATOR",inactive; negative
same,mutagenic call,"Test System: AMES SALMONELLA TYPHIMURIUM, Strain/Indicator: TA98, Metabolic Activation: RAT, LIVER, S-9, SODIUM PHENOBARBITAL AND 5,6-BENZOFLAVONE, Method: GAS EXPOSURE",inactive; negative
same,mutagenic call,"Test System: AMES SALMONELLA TYPHIMURIUM, Strain/Indicator: TA100, Metabolic Activation: HAMSTER, LIVER, S-9, AROCLOR 1254 (30%), Method: DESICCATOR",active; positive
same,mutagenic call,"Test System: AMES SALMONELLA TYPHIMURIUM, Strain/Indicator: TA100, Metabolic Activation: NONE, Method: DESICCATOR",active; positive
same,mutagenic call,"Test System: AMES SALMONELLA TYPHIMURIUM, Strain/Indicator: TA100, Metabolic Activation: NONE, Method: GAS EXPOSURE",active; positive
same,mutagenic call,[1],active; positive
same,mutagenic call,[2],active; positive
same,mutagenic call,"Test System: AMES SALMONELLA TYPHIMURIUM, Strain/Indicator: TA100, Metabolic Activation: RAT, LIVER, S-9, AROCLOR 1254 (30%), Method: DESICCATOR",active; positive
same,mutagenic call,[3],active; positive
same,mutagenic call,[4],active; positive
same,mutagenic call,"Test System: AMES SALMONELLA TYPHIMURIUM, Strain/Indicator: TA100, Metabolic Activation: RAT, LIVER, S-9, SODIUM PHENOBARBITAL AND 5,6-BENZOFLAVONE, Method: GAS EXPOSURE",active; positive
same,mutagenic call,"Test System: AMES SALMONELLA TYPHIMURIUM, Strain/Indicator: TA1535, Metabolic Activation: NONE, Method: GAS EXPOSURE",active; positive
same,mutagenic call,"Test System: AMES SALMONELLA TYPHIMURIUM, Strain/Indicator: TA1535, Metabolic Activation: RAT, LIVER, S-9, SODIUM PHENOBARBITAL AND 5,6-BENZOFLAVONE, Method: GAS EXPOSURE",active; positive
same,mutagenic call,"Test System: AMES SALMONELLA TYPHIMURIUM, Strain/Indicator: TA1537, Metabolic Activation: NONE, Method: GAS EXPOSURE",inactive; negative
same,mutagenic call,"Test System: AMES SALMONELLA TYPHIMURIUM, Strain/Indicator: TA1537, Metabolic Activation: RAT, LIVER, S-9, SODIUM PHENOBARBITAL AND 5,6-BENZOFLAVONE, Method: GAS EXPOSURE",inactive; negative
same,mutagenic call,"Test System: E. COLI, Strain/Indicator: WP2UVRA, Metabolic Activation: NONE, Method: GAS EXPOSURE",active; positive
same,mutagenic call,"Test System: E. COLI, Strain/Indicator: WP2UVRA, Metabolic Activation: RAT, LIVER, S-9, SODIUM PHENOBARBITAL AND 5,6-BENZOFLAVONE, Method: GAS EXPOSURE",active; positive
O=C(O)/C(Cl)=C(\C(=O)O)C(Cl)Cl,mutagenic call,"Test System: AMES SALMONELLA TYPHIMURIUM, Strain/Indicator: TA97, Metabolic Activation: NONE, Method: STANDARD PLATE",inactive; negative
same,mutagenic call,"Test System: AMES SALMONELLA TYPHIMURIUM, Strain/Indicator: TA97, Metabolic Activation: RAT, LIVER, S-9, PHENOBARBITAL, Method: STANDARD PLATE",inactive; negative
same,mutagenic call,[5],inactive; negative
same,mutagenic call,[6],inactive; negative
same,mutagenic call,"Test System: AMES SALMONELLA TYPHIMURIUM, Strain/Indicator: TA98, Metabolic Activation: RAT, LIVER, S-9, PHENOBARBITAL, Method: STANDARD PLATE",inactive; negative
same,mutagenic call,[4],inactive; negative
same,mutagenic call,"Test System: AMES SALMONELLA TYPHIMURIUM, Strain/Indicator: TA100, Metabolic Activation: RAT, LIVER, S-9, PHENOBARBITAL, Method: STANDARD PLATE",inactive; negative
same,mutagenic call,"Test System: AMES SALMONELLA TYPHIMURIUM, Strain/Indicator: TA102, Metabolic Activation: NONE, Method: STANDARD PLATE",inactive; negative
same,mutagenic call,"Test System: AMES SALMONELLA TYPHIMURIUM, Strain/Indicator: TA102, Metabolic Activation: RAT, LIVER, S-9, AROCLOR 1254, Method: STANDARD PLATE",inactive; negative
CCN(CC[N+](C)(C)C)c1ccc(N=Nc2ccc([N+](=O)[O-])cc2Cl)cc1,mutagenic call,"Test System: AMES SALMONELLA TYPHIMURIUM, Strain/Indicator: TA98, Metabolic Activation: HAMSTER, LIVER, S-9, AROCLOR 1254, Method: STANDARD PLATE",active; positive
same,mutagenic call,"Test System: AMES SALMONELLA TYPHIMURIUM, Strain/Indicator: TA98, Metabolic Activation: HAMSTER, LIVER, S-9, Method: PREINCUBATION (PRIVAL METHOD)",active; positive
same,mutagenic call,[5],active; positive
same,mutagenic call,[6],active; positive
same,mutagenic call,"Test System: AMES SALMONELLA TYPHIMURIUM, Strain/Indicator: TA100, Metabolic Activation: HAMSTER, LIVER, S-9, AROCLOR 1254, Method: STANDARD PLATE",active; positive
same,mutagenic call,[2],active; positive
same,mutagenic call,[4],active; positive
same,mutagenic call,"Test System: AMES SALMONELLA TYPHIMURIUM, Strain/Indicator: TA1537, Metabolic Activation: NONE, Method: STANDARD PLATE",active; positive
same,mutagenic call,"Test System: AMES SALMONELLA TYPHIMURIUM, Strain/Indicator: TA1538, Metabolic Activation: HAMSTER, LIVER, S-9, AROCLOR 1254, Method: STANDARD PLATE",active; positive
same,mutagenic call,"Test System: AMES SALMONELLA TYPHIMURIUM, Strain/Indicator: TA1538, Metabolic Activation: NONE, Method: STANDARD PLATE",active; positive
same,mutagenic call,"Test System: AMES SALMONELLA TYPHIMURIUM, Strain/Indicator: TA1538, Metabolic Activation: RAT, LIVER, S-9, AROCLOR 1254, Method: STANDARD PLATE",active; positive
same,mutagenic call,"Test System: Ames Salmonella typhimurium, Strain/Indicator: TA98, Metabolic Activation: None, Method: Preincubation",active; positive
same,mutagenic call,"Test System: Ames Salmonella typhimurium, Strain/Indicator: TA100, Metabolic Activation: None, Method: Preincubation",inactive; negative
same,mutagenic call,"Test System: Ames Salmonella typhimurium, Strain/Indicator: TA102, Metabolic Activation: None, Method: Preincubation",inactive; negative
same,mutagenic call,"Test System: Ames Salmonella typhimurium, Strain/Indicator: TA1535, Metabolic Activation: None, Method: Preincubation",inactive; negative
same,mutagenic call,"Test System: MOUSE LYMPHOMA, Strain/Indicator: L5178Y (TK+/TK-), Metabolic Activation: NONE, Method: SUSPENSION/PLATE",inactive; negative. reevaluation of results: negative
same,mutagenic call,"Test System: MOUSE LYMPHOMA, Strain/Indicator: L5178Y (TK+/TK-), Metabolic Activation: RAT, LIVER, S-9, AROCLOR 1254, Method: SUSPENSION/PLATE",active; positive. reevaluation of results: positive
Cc1ccc2c(c1)C(C)c1cc(C)ccc1-2,mutagenic call,[6],inactive; negative
same,mutagenic call,[4],inactive; negative
NC(CNCCCC[C@H](N)C(=O)O)C(=O)O (stereo not given in full),mutagenic call,"Test System: AMES SALMONELLA TYPHIMURIUM, Strain/Indicator: TA97, Metabolic Activation: NONE, Method: PREINCUBATION",inactive; negative
same,mutagenic call,"Test System: AMES SALMONELLA TYPHIMURIUM, Strain/Indicator: TA97, Metabolic Activation: RAT, KIDNEY, S-9, AROCLOR 1254, Method: PREINCUBATION",inactive; negative
same,mutagenic call,"Test System: AMES SALMONELLA TYPHIMURIUM, Strain/Indicator: TA97, Metabolic Activation: RAT, LIVER, S-9, AROCLOR 1254, Method: PREINCUBATION",inactive; negative
same,mutagenic call,"Test System: AMES SALMONELLA TYPHIMURIUM, Strain/Indicator: TA98, Metabolic Activation: NONE, Method: PREINCUBATION",inactive; negative
same,mutagenic call,"Test System: AMES SALMONELLA TYPHIMURIUM, Strain/Indicator: TA98, Metabolic Activation: RAT, KIDNEY, S-9, AROCLOR 1254, Method: PREINCUBATION",inactive; negative
same,mutagenic call,"Test System: AMES SALMONELLA TYPHIMURIUM, Strain/Indicator: TA98, Metabolic Activation: RAT, LIVER, S-9, AROCLOR 1254, Method: PREINCUBATION",inactive; negative
same,mutagenic call,[1],inactive; negative
same,mutagenic call,"Test System: AMES SALMONELLA TYPHIMURIUM, Strain/Indicator: TA100, Metabolic Activation: RAT, KIDNEY, S-9, AROCLOR 1254, Method: PREINCUBATION",inactive; negative
same,mutagenic call,[3],inactive; negative
same,mutagenic call,"Test System: AMES SALMONELLA TYPHIMURIUM, Strain/Indicator: TA102, Metabolic Activation: NONE, Method: PREINCUBATION",inactive; negative
same,mutagenic call,"Test System: AMES SALMONELLA TYPHIMURIUM, Strain/Indicator: TA102, Metabolic Activation: RAT, KIDNEY, S-9, AROCLOR 1254, Method: PREINCUBATION",inactive; negative
same,mutagenic call,"Test System: AMES SALMONELLA TYPHIMURIUM, Strain/Indicator: TA102, Metabolic Activation: RAT, LIVER, S-9, AROCLOR 1254, Method: PREINCUBATION",inactive; negative
